Measured values: ChEMBL document CHEMBL3259607, “Hot spot-based design of small-molecule inhibitors for protein-protein interactions” (Bioorg Med Chem Lett, 2014)

How the values were obtained:
[1] = target: Von Hippel-Lindau disease tumor suppressor/Elongin B/Elongin C (Homo sapiens, UniProt P40337); test: Displacement of FAM-DEALAHyp-YIPD from VHL/elongins-B/elonginC (unknown origin) by fluorescence polarization assay; format: protein-complex assay
[2] = target: TCF4/beta-catenin (Homo sapiens, UniProt P35222+Q9NQB0); test: Inhibition of beta-catenin/T cell factor (unknown origin); format: protein-complex assay
[3] = target: T1, Interferon alpha/beta receptor 1 (Homo sapiens, UniProt P17181); test: Binding affinity to IFNAR (unknown origin) assessed as inhibition of interaction with IFN-alpha
T1 sequence (P17181 whole entry): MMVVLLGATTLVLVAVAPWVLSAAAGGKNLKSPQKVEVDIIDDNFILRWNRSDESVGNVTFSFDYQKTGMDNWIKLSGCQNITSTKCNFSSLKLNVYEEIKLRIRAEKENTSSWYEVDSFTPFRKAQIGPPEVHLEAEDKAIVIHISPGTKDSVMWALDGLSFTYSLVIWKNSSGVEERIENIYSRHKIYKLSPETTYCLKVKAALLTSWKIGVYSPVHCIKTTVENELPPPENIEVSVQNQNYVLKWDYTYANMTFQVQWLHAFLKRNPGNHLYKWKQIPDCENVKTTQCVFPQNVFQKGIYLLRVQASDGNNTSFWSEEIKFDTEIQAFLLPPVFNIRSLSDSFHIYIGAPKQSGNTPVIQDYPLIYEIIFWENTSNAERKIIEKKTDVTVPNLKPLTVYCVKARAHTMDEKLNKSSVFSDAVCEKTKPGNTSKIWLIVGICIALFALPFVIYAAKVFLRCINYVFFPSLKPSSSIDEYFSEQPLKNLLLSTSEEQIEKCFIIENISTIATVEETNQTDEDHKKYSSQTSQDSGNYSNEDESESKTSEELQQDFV

Von Hippel-Lindau disease tumor suppressor/Elongin B/Elongin C, sequence (P40337 whole entry, looked up): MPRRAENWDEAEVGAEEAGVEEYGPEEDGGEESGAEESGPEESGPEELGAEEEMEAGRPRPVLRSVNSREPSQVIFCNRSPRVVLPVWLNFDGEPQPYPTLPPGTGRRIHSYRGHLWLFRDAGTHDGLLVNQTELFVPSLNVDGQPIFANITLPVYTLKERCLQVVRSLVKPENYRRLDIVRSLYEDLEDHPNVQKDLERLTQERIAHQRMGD
TCF4/beta-catenin, sequence (P35222 whole entry): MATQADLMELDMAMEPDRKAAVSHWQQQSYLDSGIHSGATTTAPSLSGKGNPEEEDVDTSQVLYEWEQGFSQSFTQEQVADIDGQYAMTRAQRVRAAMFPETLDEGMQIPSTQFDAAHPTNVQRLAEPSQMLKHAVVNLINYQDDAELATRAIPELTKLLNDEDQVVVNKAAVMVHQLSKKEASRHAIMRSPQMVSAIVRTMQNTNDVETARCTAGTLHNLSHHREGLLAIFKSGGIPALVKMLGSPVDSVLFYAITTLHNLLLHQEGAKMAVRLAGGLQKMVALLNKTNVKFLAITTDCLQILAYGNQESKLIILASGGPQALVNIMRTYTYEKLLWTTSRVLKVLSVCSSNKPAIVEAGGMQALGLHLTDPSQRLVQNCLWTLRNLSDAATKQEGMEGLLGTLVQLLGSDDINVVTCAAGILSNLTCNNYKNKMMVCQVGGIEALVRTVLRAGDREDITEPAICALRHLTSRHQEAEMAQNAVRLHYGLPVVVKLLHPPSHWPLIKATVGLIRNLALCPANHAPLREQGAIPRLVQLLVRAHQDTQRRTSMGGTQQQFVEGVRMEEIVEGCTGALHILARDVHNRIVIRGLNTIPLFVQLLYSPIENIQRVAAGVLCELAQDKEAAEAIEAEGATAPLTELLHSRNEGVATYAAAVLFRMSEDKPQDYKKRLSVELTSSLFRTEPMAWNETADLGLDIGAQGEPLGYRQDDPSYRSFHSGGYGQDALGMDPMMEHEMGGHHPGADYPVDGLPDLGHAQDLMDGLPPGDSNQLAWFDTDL
TCF4/beta-catenin, sequence (Q9NQB0 whole entry): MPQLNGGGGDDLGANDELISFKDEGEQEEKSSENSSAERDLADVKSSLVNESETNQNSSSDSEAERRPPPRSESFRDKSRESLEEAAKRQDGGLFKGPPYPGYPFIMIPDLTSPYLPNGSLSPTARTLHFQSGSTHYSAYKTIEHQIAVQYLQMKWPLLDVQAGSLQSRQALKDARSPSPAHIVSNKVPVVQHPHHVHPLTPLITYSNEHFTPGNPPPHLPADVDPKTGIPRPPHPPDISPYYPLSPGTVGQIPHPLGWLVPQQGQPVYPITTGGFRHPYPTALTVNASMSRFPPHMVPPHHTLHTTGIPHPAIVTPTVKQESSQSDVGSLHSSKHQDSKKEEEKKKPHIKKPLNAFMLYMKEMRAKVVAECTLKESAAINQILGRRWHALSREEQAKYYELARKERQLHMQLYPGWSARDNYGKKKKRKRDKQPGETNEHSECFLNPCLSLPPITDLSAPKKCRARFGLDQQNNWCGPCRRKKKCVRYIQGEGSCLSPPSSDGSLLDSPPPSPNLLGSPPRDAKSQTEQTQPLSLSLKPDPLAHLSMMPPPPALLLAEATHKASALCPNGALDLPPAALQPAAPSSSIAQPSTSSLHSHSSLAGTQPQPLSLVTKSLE

Compound: Cc1ncsc1-c1ccc(CNC(=O)[C@@H]2C[C@@H](O)CN2C(=O)c2cccc(N)c2C)cc1
- IC50 [1]: 900 nM

Compound: Oc1noc2cc(CCc3nn[nH]n3)ccc12
- Ki [2]: 1350 nM

Compound: CNCc1ccccc1Sc1cccc2ccccc12
- Kd [3]: 4 µM
